Data on twelve molecules can be found in PubChem BioAssay (NCI).

Among the test systems are SF-268 CNS; NCI/ADR-RES ovarian; CCRF-CEM leukemia; MOLT-4 leukemia; A498 renal; NCI-H23 lung; UACC-257 melanoma; DU-145 prostate; KM12 colon; CAKI-1 renal.
Holding throughout (assay): NCI tumour cell line growth inhibition, 48 h

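1) Cells in 96-well plates. 2) Compound, 48 h, 5 concentrations. 3) Linear interpolation between surrounding doses. 4) Unreached endpoint = highest concentration. GI50 is the concentration that inhibits growth by half. TGI is the concentration that stops growth completely.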

In the case of `C=C1C(=O)O[C@H]2C3C(=C(C)CC[C@@H]12)C(=O)[C@@H]1OC31C` (stereo not given in full), the TGI came to 12.6 µM in the assay on SF-268 CNS; 10.7 µM in the assay with NCI/ADR-RES ovarian; 1.31 µM in the assay with CCRF-CEM leukemia; 3.27 µM in the assay on MOLT-4 leukemia; 23.7 µM with A498 renal; 6.4 µM with NCI-H23 lung. Also, the TGI was 5.98 µM with UACC-257 melanoma, 25.8 µM in the assay on DU-145 prostate, 20.2 µM in the assay on KM12 colon and 7.9 µM in the assay with CAKI-1 renal.
With `N#Cc1c(-c2ccc(Cl)cc2)cc(-c2nc3ccccc3[nH]2)nc1N`, the TGI in the assay with SF-268 CNS was 34.6 µM; in the assay with NCI/ADR-RES ovarian, 48.4 µM; with CCRF-CEM leukemia, 45.3 µM; in the assay with MOLT-4 leukemia it was 26.8 µM; with A498 renal, 22.6 µM; with NCI-H23 lung, 35.3 µM. Further, the TGI in the assay on UACC-257 melanoma stood at 18.5 µM; in the assay with DU-145 prostate, 20.2 µM; with KM12 colon it was 25.1 µM; in the assay on CAKI-1 renal it was 46.6 µM.
As to `CCOC(=O)CCC(C(=O)OCC)n1nnc2cc(Nc3c(C)[n+]([O-])c4ccc(Cl)cc4[n+]3[O-])ccc21` (stereo not given), the TGI in the assay on SF-268 CNS, with NCI/ADR-RES ovarian, with CCRF-CEM leukemia, in the assay with MOLT-4 leukemia, in the assay with A498 renal and in the assay on NCI-H23 lung was above 100 µM throughout. The TGI in the assay on UACC-257 melanoma, with DU-145 prostate, in the assay on KM12 colon and in the assay with CAKI-1 renal was above 100 µM throughout.
Regarding `COc1ccc(C2=NNC(=O)c3ccccc3N2c2nc(-c3cccs3)nc3ccc(Br)cc23)cc1`, the TGI in the assay on SF-268 CNS is above 100 µM; in the assay on NCI/ADR-RES ovarian, 62.4 µM; with CCRF-CEM leukemia it was above 100 µM; in the assay on MOLT-4 leukemia, above 100 µM; in the assay on A498 renal, above 100 µM; in the assay on NCI-H23 lung it was above 100 µM. In addition, the TGI with UACC-257 melanoma, with DU-145 prostate, with KM12 colon and with CAKI-1 renal was above 100 µM throughout.
As to `C/C(=C\CNc1nc(Cl)nc2nc[nH]c12)CO`, the TGI in the assay on SF-268 CNS, in the assay with NCI/ADR-RES ovarian, with CCRF-CEM leukemia, with MOLT-4 leukemia, in the assay on A498 renal and with NCI-H23 lung was above 100 µM throughout. The TGI with UACC-257 melanoma, with DU-145 prostate, in the assay on KM12 colon and in the assay with CAKI-1 renal was above 100 µM each time.
For the molecule `Cn1c(=O)c2sc3cc4c(cc3c2c2ccccc21)sc1c(=O)n(C)c2ccccc2c14`, the TGI with SF-268 CNS, in the assay with NCI/ADR-RES ovarian, with CCRF-CEM leukemia, with MOLT-4 leukemia, in the assay with A498 renal and in the assay with NCI-H23 lung was above 100 µM throughout. The TGI in the assay with UACC-257 melanoma, with DU-145 prostate, in the assay on KM12 colon and in the assay on CAKI-1 renal was above 100 µM throughout.
Consider `Cc1ccc2cnc(N)c(C#Cc3cncc(C(=O)Nc4ccc(CN5CCN(C)CC5)c(C(F)(F)F)c4)c3)c2c1`, for which the GI50 in the assay on SF-268 CNS was 0.479 µM; with NCI/ADR-RES ovarian, 0.746 µM; in the assay with CCRF-CEM leukemia it was 0.197 µM; with MOLT-4 leukemia, 0.205 µM; with A498 renal, 0.291 µM; with NCI-H23 lung, 0.492 µM. Besides, the GI50 in the assay with UACC-257 melanoma is 0.605 µM; in the assay with DU-145 prostate, 0.387 µM; in the assay on KM12 colon, 0.005 µM; in the assay with CAKI-1 renal it was 0.627 µM. Also, the TGI in the assay with SF-268 CNS came out at 1.27 µM; in the assay with NCI/ADR-RES ovarian, 2.09 µM; in the assay on CCRF-CEM leukemia it was 0.897 µM; in the assay with MOLT-4 leukemia, 0.936 µM; in the assay on A498 renal it was 1.01 µM; with NCI-H23 lung, 1.25 µM. In addition, the TGI in the assay on UACC-257 melanoma was 1.38 µM; in the assay with DU-145 prostate it was 1.03 µM; in the assay on KM12 colon, 0.538 µM; with CAKI-1 renal it was 1.27 µM.
As to `COC1=CC(=O)c2c(cc(COP(=O)(N(C)CCBr)N(C)CCBr)n2C)C1=O`, the TGI is above 38.2 µM with SF-268 CNS; 16.7 µM in the assay on NCI/ADR-RES ovarian; 19 µM with CCRF-CEM leukemia; above 100 µM in the assay on MOLT-4 leukemia; 6.12 µM with A498 renal; 2.28 µM in the assay with NCI-H23 lung. The TGI in the assay on UACC-257 melanoma worked out at 12.9 µM; in the assay with DU-145 prostate it was 19.5 µM; in the assay with KM12 colon, 24.1 µM; in the assay on CAKI-1 renal it was 2.26 µM.
With `COC(=O)/C=C\C(C#N)(C#N)N=Cc1ccsc1`, the TGI with SF-268 CNS is 46.2 µM; with NCI/ADR-RES ovarian, above 19.7 µM; in the assay with CCRF-CEM leukemia, 0.93 µM; with MOLT-4 leukemia, 5 µM; with A498 renal, 35.3 µM; in the assay on NCI-H23 lung, 22.1 µM. For the same molecule, the TGI in the assay with UACC-257 melanoma is 9.35 µM; in the assay with DU-145 prostate, 21.5 µM; with KM12 colon, 28.9 µM; in the assay on CAKI-1 renal, 6.07 µM.
With `O=c1/c(=C/c2ccc(-c3ccc(Cl)cc3Cl)o2)sc2n1[C@@H](c1ccc3c(c1)OCO3)C=C(c1cc(F)c(Cl)cc1Cl)N=2`, the TGI in the assay on SF-268 CNS is above 100 µM; with NCI/ADR-RES ovarian, above 100 µM; in the assay with CCRF-CEM leukemia, above 100 µM; with MOLT-4 leukemia it was above 100 µM; with A498 renal, 6 µM; with NCI-H23 lung it was above 100 µM. In addition, the TGI in the assay with UACC-257 melanoma is 71.1 µM; in the assay on DU-145 prostate, above 100 µM; in the assay with KM12 colon, above 100 µM; with CAKI-1 renal, above 100 µM.
In the case of `Cc1ccc(S(=O)(=O)N2CCN(CCO)CCN(S(=O)(=O)c3ccc(C)cc3)CCN(CCO)CC2)cc1`, the TGI in the assay on SF-268 CNS is above 100 µM; in the assay on NCI/ADR-RES ovarian, 38.3 µM; in the assay on CCRF-CEM leukemia, 54 µM; in the assay with MOLT-4 leukemia it was 57.1 µM; in the assay on A498 renal it was 62.7 µM; in the assay with NCI-H23 lung, 45.9 µM. Moreover, the TGI in the assay with UACC-257 melanoma is 25.1 µM; with DU-145 prostate, 34.8 µM; with KM12 colon, 38.6 µM; with CAKI-1 renal, above 100 µM.
For `O=C(Nc1nc(C23CC4CC(CC(C4)C2)C3)cs1)c1cc2cc([N+](=O)[O-])ccc2oc1=O`, the TGI in the assay with SF-268 CNS, in the assay with NCI/ADR-RES ovarian, with CCRF-CEM leukemia, with MOLT-4 leukemia, with A498 renal and with NCI-H23 lung was above 100 µM throughout. Further, the TGI in the assay on UACC-257 melanoma, in the assay with DU-145 prostate, in the assay on KM12 colon and in the assay on CAKI-1 renal was above 100 µM in each case.
